Assay results as given in US9107415B2, “2-(substituted-phenyl)-cyclopentane-1,3-dione compounds, and derivatives thereof” (Syngenta Limited, priority 2011, dated 2015).

Experiments:
Assay type in all cases: in vivo
[1] = tested on: Echinochloa crus-galli (ECHCG); experiment: Biological Example 1 glasshouse screen, pre-emergence herbicidal activity; details: 312 h, application rate 250 g/ha, evaluated after 13 days, read-out: ECHCG percentage phytotoxicity
Method: (§1) Seeds of a variety of test species were sown in standard soil in pots. After cultivation for one day (pre-emergence) or after 8 days cultivation (post-emergence) under controlled conditions in a glasshouse (at 24/16°C., day/night; 14 hours light; 65% humidity), the plants were sprayed with an aqueous spray solution derived from the formulation of the “technical”(i.e. unformulated) active ingredient in acetone/water (50:50) solution containing 0.5% Tween 20 (polyoxyethylene sorbitan monolaurate, CAS Registry Number 9005-64-5). The test plants were then grown in a glasshouse under controlled conditions in a glasshouse (at 24/16°C., day/night; 14 hours light; 65% humidity) and watered twice daily. After 13 days for pre- or post-emergence, the test was evaluated visually, and an assessed percentage phytotoxicity score given for each herbicidal application on each plant/weed species (with 100%=total damage to plant; 0%=no damage to plant).
(§2) Test plants: Alopecurus myosuroides (ALOMY), Setaria faberi (SETFA), Echinochloa crus-galli (ECHCG), Solanum nigrum (SOLNI), Amaranthus retroflexus (AMARE) and Ipomoea hederacea (IPOHE). ALOMY, SETFA and ECHCG are grassy monocotyledonous weeds. SOLNI, AMARE and IPOHE are dicotyledonous (broadleaved) weeds.
(§3) Test plants: Lolium perenne (LOLPE), Alopecurus myosuroides (ALOMY), Echinochloa crus-galli (ECHCG), and Avena fatua (AVEFA). All four of these are grassy monocotyledonous weeds.

[2] = tested on: Alopecurus myosuroides (ALOMY); experiment: as above; details: 312 h, application rate 250 g/ha, evaluated after 13 days, read-out: ALOMY percentage phytotoxicity
Method: as §1, §2, §3

[3] = tested on: Echinochloa crus-galli (ECHCG); experiment: Biological Example 1 glasshouse screen, post-emergence herbicidal activity; details: 312 h, application rate 250 g/ha, evaluated after 13 days, read-out: ECHCG percentage phytotoxicity
Method: as §1, §2, §3

[4] = tested on: Alopecurus myosuroides (ALOMY); experiment: as above; details: 312 h, application rate 250 g/ha, evaluated after 13 days, read-out: ALOMY percentage phytotoxicity
Method: as §1, §2, §3

[5] = tested on: Avena fatua (AVEFA); experiment: Biological Example 1 glasshouse screen, pre-emergence herbicidal activity; details: 312 h, application rate 250 g/ha, evaluated after 13 days, read-out: AVEFA percentage phytotoxicity
Method: as §1, §3

[6] = tested on: Lolium perenne (LOLPE); experiment: as above; details: 312 h, application rate 250 g/ha, evaluated after 13 days, read-out: LOLPE percentage phytotoxicity
Method: as §1, §3

[7] = tested on: Avena fatua (AVEFA); experiment: Biological Example 1 glasshouse screen, post-emergence herbicidal activity; details: 312 h, application rate 250 g/ha, evaluated after 13 days, read-out: AVEFA percentage phytotoxicity
Method: as §1, §3

[8] = tested on: Lolium perenne (LOLPE); experiment: as above; details: 312 h, application rate 250 g/ha, evaluated after 13 days, read-out: LOLPE percentage phytotoxicity
Method: as §1, §3

[9] = tested on: Alopecurus myosuroides, blackgrass (ALOMY); experiment: Biological Example 3 glasshouse screen, post-emergence herbicidal activity; details: 360 h, 15 DAA, no safener, read-out: ALOMY percentage phytotoxicity; for pest or weed control at 30 g/ha: application rate 30 g/ha
Method: (§4) Test Method: Seeds of a variety of test species are sown in standard soil in pots. After cultivation for one day (pre-emergence) or after 12 days cultivation (post-emergence) under controlled conditions in a glasshouse (warm climate species at 24/18°C., cool climate species at 20/16°C., both at day/night; 16 hours light; 65% humidity), the plants are sprayed with an aqueous spray solution derived from the formulation of the “technical”(i.e. unformulated) active ingredient dissolved in acetone plus IF50, at a 1:20 ratio of “technical”active ingredient to IF50. The IF50 contains about 10.56 weight % Emulsogen EL™(castor oil ethoxylate, CAS Registry number 61791-12-6), about 42.22 weight % N-methylpyrrolidone, and about 42.22 weight % DPG-Monoethyl ether (dipropylene glycol mono-ethyl ether). The adjuvant X-77 (a mixture of alkyl aryl polyoxyethylene glycols and free fatty acids in isopropanol, CAS Registry number 11097-66-8) is added to the aqueous spray solution to form a 0.2% v/v solution, before spraying onto the plants.
(§5) The test plants are then grown in a glasshouse under controlled conditions in a glasshouse (at 24/18°C. or 20/16°C., day/night; 16 hours light; 65% humidity) and watered twice daily. After 15 days after application of the herbicide (15 DAA) (for post-emergence), and after 20 DAA (for pre-emergence), the test is evaluated visually, and an assessed percentage phytotoxicity score is given for each herbicidal application on each plant/weed species (with 100%=total damage to plant; 0%=no damage to plant). […]

[10] = tested on: Echinochloa crus galli, barnyardgrass (ECHCG); experiment: as above; details: 360 h, 15 DAA, no safener, read-out: ECHCG percentage phytotoxicity; for pest or weed control at 30 g/ha: application rate 30 g/ha
Method: as §4, §5

[11] = tested on: Avena fatua, wild oats (AVEFA); experiment: as above; details: 360 h, 15 DAA, no safener, read-out: AVEFA percentage phytotoxicity; for pest or weed control at 30 g/ha: application rate 30 g/ha
Method: as §4, §5

[12] = tested on: Lolium perenne, perennial ryegrass (LOLPE); experiment: as above; details: 360 h, 15 DAA, no safener, read-out: LOLPE percentage phytotoxicity; for pest or weed control at 30 g/ha: application rate 30 g/ha
Method: as §4, §5

[13] = tested on: Triticum aestivum, wheat (TRZAW); experiment: Biological Example 3 glasshouse screen, post-emergence, phytotoxicity on wheat; details: 360 h, 15 DAA, no safener, read-out: TRZAW percentage phytotoxicity; for pest or weed control at 30 g/ha: application rate 30 g/ha
Method: as §4
The test plants are then grown in a glasshouse under controlled conditions in a glasshouse (at 24/18°C. or 20/16°C., day/night; 16 hours light; 65% humidity) and watered twice daily. After 15 days after application of the herbicide (15 DAA) (for post-emergence), and after 20 DAA (for pre-emergence), the test is evaluated visually, and an assessed percentage phytotoxicity score is given for each herbicidal application on each plant/weed species (with 100%=total damage to plant; 0%=no damage to plant).
These give an approximate indication of the level of selectivity on wheat for these tested compounds, when a herbicide safener such as cloquintocet-mexyl is not used: […]

SMILES | pest or weed control at 250 g/ha [1] | pest or weed control at 250 g/ha [2] | pest or weed control at 250 g/ha [3] | pest or weed control at 250 g/ha [4] | pest or weed control at 250 g/ha [5] | pest or weed control at 250 g/ha [6] | pest or weed control at 250 g/ha [7] | pest or weed control at 250 g/ha [8] | pest or weed control at 30 g/ha [9] | pest or weed control at 30 g/ha [10] | pest or weed control at 30 g/ha [11] | pest or weed control at 30 g/ha [12] | pest or weed control at 30 g/ha [13] | pest or weed control at 60 g/ha ([9]; application rate 60 g/ha) | pest or weed control at 60 g/ha ([10]; application rate 60 g/ha) | pest or weed control at 60 g/ha ([11]; application rate 60 g/ha) | pest or weed control at 60 g/ha ([12]; application rate 60 g/ha) | pest or weed control at 60 g/ha ([13]; application rate 60 g/ha)
CC#CCC1CC(=O)C(c2c(C)cc(C#CC)cc2C)C1=O (stereo not drawn) [Compound A-21] | 100% | 100% | 100% | 100% | 60% | 100% | 80% | 100% | – | – | – | – | – | – | – | – | – | –
CC#Cc1cc(C)c(C2C(=O)CC(CC#CCl)C2=O)c(C)c1 (stereo not drawn) [Compound A-22] | 100% | 90% | 100% | 60% | 80% | 90% | 0% | 80% | – | – | – | – | – | – | – | – | – | –
C#CCC1CC(=O)C(c2c(C)cc(C#CC)cc2C)C1=O (stereo not drawn) [Compound A-20] | 100% | 100% | 100% | 100% | 90% | 100% | 90% | 100% | – | – | – | – | – | – | – | – | – | –
CC#Cc1cc(C)c(C2C(=O)CC(Cc3ccn[nH]3)C2=O)c(C)c1 (stereo not drawn) [Compound A-24] | 100% | 100% | 100% | 100% | 80% | 100% | 100% | 100% | – | – | – | – | – | – | – | – | – | –
CC#Cc1cc(C)c(C2=C(O)CC(Cc3ccc(C(C)=O)cn3)C2=O)c(C)c1 (stereo not drawn) [Compound A-13] | 100% | 80% | 100% | 70% | 80% | 80% | 80% | 80% | – | – | – | – | – | – | – | – | – | –
CC#Cc1cc(C)c(C2=C(O)CC(Cc3cccc(C#N)n3)C2=O)c(C)c1 (stereo not drawn) [Compound A-12] | 100% | 90% | 100% | 90% | 80% | 90% | 100% | 90% | – | – | – | – | – | – | – | – | – | –
CC#Cc1cc(C)c(C2C(=O)CC(Cc3ccc(C#N)cc3)C2=O)c(C)c1 (stereo not drawn) [Compound A-28] | 100% | 70% | 100% | 90% | 70% | 90% | 80% | 90% | – | – | – | – | – | – | – | – | – | –
CC#Cc1cc(C)c(C2C(=O)CC(Cc3ccc(C#N)c(NC)n3)C2=O)c(C)c1 (stereo not drawn) [Compound A-23, 6-[[3-(2,6-dimethyl-4-prop-1-ynyl-phenyl)-2,4-dioxo-cyclopentyl]methyl]-2-(methylamino)pyridine-3-carbonitrile] | 100% | 80% | 100% | 100% | 80% | 80% | 90% | 90% | – | – | – | – | – | – | – | – | – | –
CC#Cc1cc(C)c(C2C(=O)CC(Cc3ccc(C#N)cn3)C2=O)c(CC)c1 (stereo not drawn) [Compound A-27] | 100% | 90% | 100% | 70% | 90% | 100% | 100% | 90% | – | – | – | – | – | – | – | – | – | –
Cc1cc(-c2ccc(F)c(Cl)c2)cc(C)c1C1C(=O)CC(Cc2ccccn2)C1=O (stereo not drawn) [reference compound] | – | – | – | – | – | – | – | – | 100% | 90% | 90% | 70% | 70% | – | – | – | – | –
Cc1cc(-c2ccc(F)cc2)cc(C)c1C1C(=O)CC(Cc2ccccn2)C1=O (stereo not drawn) [Compound T71, from WO 2010/069834, reference compound] | – | – | – | – | – | – | – | – | 100% | 100% | 100% | 90% | 80% | – | – | – | – | –
C#CCC1CC(=O)C(c2c(C)cc(C#CCl)cc2C)C1=O (stereo not drawn) [Compound A-25] | 100% | 90% | 100% | 90% | 70% | 100% | 100% | 100% | – | – | – | – | – | – | – | – | – | –
CC#Cc1cc(C)c(C2C(=O)CC(Cc3ccccc3C#N)C2=O)c(C)c1 (stereo not drawn) [Compound A-29] | 80% | 50% | 100% | 100% | 100% | 50% | 80% | 100% | – | – | – | – | – | – | – | – | – | –
Cc1cc(-c2ccc(F)cc2)cc(C)c1C1C(=O)CC(Cc2ccc(C#N)cn2)C1=O (stereo not drawn) [reference compound] | – | – | – | – | – | – | – | – | 70% | 100% | 30% | 10% | 50% | – | – | – | – | –
CC#Cc1cc(C)c(C2=C(O)CC(Cc3cccc(F)n3)C2=O)c(C)c1 (stereo not drawn) [Compound A-7] | – | – | 100% | 100% | – | – | 90% | 100% | 70% | 80% | 40% | 80% | 40% | 80% | 100% | 50% | 90% | 50%
